Data reported in patent US20230285504A1, “INHIBITION OF REPERFUSION INJURY WITH A PSD-95 INHIBITOR” (NONO INC., priority 2020, published 2023).
pEC50: −log10 of the molar value. No end group written: not given here.

How the values were obtained:
[1] = tested on: patients with acute ischemic stroke (AIS) due to a large vessel arterial occlusion selected for endovascular thrombectomy; test: ESCAPE-NA1 phase 3 trial, exploratory re-analyses of dosing time (mRS 0-2 at 90 days); format: in vivo, human
Method: The details of the ESCAPE-NA1 methodology are published^2. In-brief, the trial was conducted at 48 sites globally. Adult patients aged 18 or greater with a disabling ischemic stroke (baseline National Institutes of Health Stroke Scale (NIHSS) score^11>5), CT evidence of a small-to-moderate ischemic core (ASPECTS 5-10)^12 and CTA evidence of LVO with a moderate-to-good collateral circulation^13,14 were enrolled in a window of up to 12 hours after the onset of stroke symptoms (last-seen-well time). Enrollment was stratified on the use of intravenous alteplase (yes/no) and declared initial thrombectomy device (stent-retriever or aspiration device). Randomized minimization was conducted within strata aimed to achieve distribution balance with regard to age, sex, baseline NIHSS, site of arterial occlusion, baseline ASPECTS and clinical site. Nerinetide and placebo vials were visually identical other than a unique vial number so that all trial personnel and patients were fully masked to treatment allocation.
After qualifying imaging, patients were treated with rapid EVT using currently available devices. Patients received intravenous alteplase^15 according to usual care following national or regional guidelines, before or during EVT, at a primary hospital prior to transfer or at the endovascular center. Treatment with alteplase was not a requirement for the study and interpretation of treatment guidelines was at the discretion of the treating team. Patients received trial drug (1:1 nerinetide:placebo), as a single dose of 2.6 mg/kg to a maximum dose of 270 mg as soon as possible after randomization. Time targets were imaging to randomization 30 minutes, imaging to study drug administration 60 minutes, and imaging to arterial access/puncture 60 minutes. Targets from imaging to reperfusion were 90th percentile 90 minutes and a median at 75 minutes.^16,17 Times (min) for workflow are summarized in Table 3.
The primary outcome was good outcome at 90 days as defined by a score of 0-2 on the modified Rankin scale (mRS) (range, 0 [no symptoms] to 6 [death]) for the assessment of neurologic functional disability^18-20. Secondary 90 day efficacy outcomes included neurological outcome as defined by the NIHSS of 0-2, functional independence in activities of daily living as defined by a Barthel Index score of 95, and mortality rates. Tertiary outcomes included assessments of stroke volumes on 24-hour imaging (MR or CT brain). Imaging interpretation was conducted at a central core laboratory and clinical data were verified by independent monitors. Infarct volumes were measured by summation of manual planimetric demarcation of infarct on axial imaging (636/1099 (57.9%) on CT and 463/1099 (42.1%) on MRI).
Analyses of efficacy in this stratum were conducted as per the primary analysis of ESCAPE-NA1 on the intention-to-treat (ITT) population, and comprised a logistic regression providing an adjusted estimate of effect size including treatment, the stratification variable of declared initial endovascular approach, and the baseline covariates of age, sex, baseline NIHSS score, baseline ASPECTS, occlusion location and clinical site. Analyses of secondary efficacy outcomes were conducted similarly to the primary analysis. To determine the impact of time metrics of interest on the efficacy of nerinetide (e.g., Onset to randomization, CT to reperfusion, Randomization to reperfusion, and Drug administration to reperfusion), the metrics variables were included in the regression analysis that was otherwise conducted like the primary analysis. Deceased patients were included in the ITT population with a mRS score of 6, a Barthel Index of 0 and NIHSS of 42. Missing primary outcomes (n=9) were imputed as the worst possible score, counted as poor outcome (mRS 3-6 dichotomy) and for mortality analysis, imputed as deaths. All analyses were performed with the use of STATA software (v16.0).

[2] = Plasma half-life in human; format: in vivo; details: intravenous, human equivalent concentrations, read-out: half-life of nerinetide
Text: Tat-NR2B9c has a plasma half-life in human plasma of about ten minutes. […] Alteplase (a recombinant form of tPA) has a half-life in human plasma of only about five minutes. But more significant for present purposes is the half-life of plasmin, which is induced by alteplase and other thrombolytic agents and is responsible for cleavage of Tat-NR2B9c. Plasmin has been reported to have a half-life in human plasma of about 4-8 hr.

[3] = Pharmacokinetics of nerinetide in rats with simultaneous alteplase; format: in vivo; details: rat
Method: A. LC/MS spectrum of nerinetide after incubation with plasmin in PBS. 10 uL aliquots of nerinetide (18 mg/mL) and plasmin (1 mg/mL) were incubated in 500 uL tubes of phosphate-buffered saline at 37 C for 5 min and the reaction stopped by cooling to −80C until tested. The various peaks correspond to the indicated fragments. Insert: Predicted trypsin cleavage sites and actual cleavage sites. (B,C) In-vitro effect of rt-PA on nerinetide content in rat (B) and human (C) plasma. Nerinetide was spiked into the plasma samples at t=0 at a concentration of 65 ug/ml, whereas alteplase (rt-PA) was administered as a 60 min infusion at the indicated concentration (D, E) In-vivo effect of the simultaneous administration of nerinetide and rt-PA on Cmax (D) and AUC (E) in the rat. The nerinetide bolus and alteplase (60 min infusion) were started simultaneously through two separate intravenous lines. Symbols represent mean±SD.
Since the effect of nerinetide in the ESCAPE-NA1 trial was negated by alteplase, we next evaluated the effects of alteplase on pharmacokinetics (PK) of nerinetide in rats. Alteplase was administered at 0.9 mg/kg (human dose) and at 5.4 mg/kg (6 times the human dose) in an infusion that simulated the clinical protocol (10% bolus followed by a 60 min infusion of the remainder). Nerinetide was administered as an intravenous bolus at the start of the alteplase infusion at 7.6 mg/kg.

[4] = Intrinsic fibrinolytic activity
[5] = target: second PDZ domain of PSD-95 protein (Homo sapiens, UniProt P78352); details: read-out: EC50 binding to second PDZ domain of PSD-95; cited from earlier work
[6] = no-alteplase, drug started 22 or more minutes from initial reperfusion
[7] = no-alteplase, long CT to reperfusion interval (>=73.5 minutes)
[8] = no-alteplase, study drug started less than 5 minutes after groin puncture
[9] = nerinetide 7.6 mg/kg iv bolus with alteplase 0.9 mg/kg (human dose)
[10] = nerinetide 7.6 mg/kg iv bolus with alteplase 5.4 mg/kg started simultaneously

Chain of second PDZ domain of PSD-95 protein (P78352 160-246 limits assumed): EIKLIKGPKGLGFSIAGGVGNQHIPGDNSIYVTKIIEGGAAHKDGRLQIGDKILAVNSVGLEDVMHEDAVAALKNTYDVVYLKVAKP

YGRKKRRQRRRKLSSIESDV [nerinetide]
adj. OR for favorable outcome (mRS 0-2 at 90 days) ([1]; no-alteplase stratum, all time windows of 12 h enrollment, nerinetide 2.6 mg/kg vs placebo): 1.757
absolute effect size of nerinetide over placebo [1, 6]: 16.25%
relative effect [1, 6]: 50.0%
adj OR for functional outcome (mRS 0-2) [1, 7]: 5.100
relative effect [1, 7]: 43.3%
unadjusted absolute effect size [1, 7]: 16.52%
adj OR for mRS(0-2) ([1]; no-alteplase, long interval drug infusion start to initial reperfusion (>=22 minutes)): 2.715
adj OR for functional outcome (mRS 0-2) ([1]; no-alteplase, short CT to reperfusion interval (<73.5 minutes)): 0.825
adj OR for mRS(0-2) ([1]; no-alteplase, short interval drug infusion start to initial reperfusion (<22 minutes)): 1.13
adj OR, primary analysis (mRS 0-2) ([1]; no-alteplase, study drug more than 5 minutes after groin puncture): 1.50
adj OR, primary analysis (mRS 0-2) ([1]; no-alteplase, study drug started at any time less than 5 minutes after groin puncture): 2.33
absolute effect size of nerinetide over placebo [1, 8]: 16.56%
relative effect [1, 8]: 36.1%
absolute effect sizes ([1]; no-alteplase, treated in longer intervals from reperfusion (summary)): approximately 16%
absolute effect ([1]; whole no-alteplase stratum): 9.65%
half-life [2]: 5 to 10 min
half-life ([3]; plasma, intravenous, 7.6 mg/kg, human equivalent concentrations (FIG. 6D)): 5 to 10 min
change of AUC of nerinetide [3, 9]: non-significant reduction
change of Cmax of nerinetide [3, 9]: non-significant reduction
lowering of mean AUC of nerinetide [3, 10]: 44%
lowering of mean Cmax of nerinetide [3, 10]: 49.5%
intrinsic fibrinolytic activity [4]: does not have any intrinsic fibrinolytic activity
pEC50 [5]: ~8.15
